Measurements published in patent US20220402867A1, “SULFO-SUBSTITUTED BIARYL COMPOUND OR SALT THEREOF, PREPARATION METHOD THEREFOR, AND USE THEREOF” (Shanghai Litedd Co., Ltd., priority 2019, published 2022).

Assays:
GST-RORγ LBD (263-509) = biological target: T1, GST-RORγ LBD (263-509) (Homo sapiens, UniProt P51449); assay: TR-FRET assay of agonistic activity on RORγ receptor; type: biochemical; conditions: for EC50: TR-FRET, GST-RORγ LBD with Biotin-SRC1; for Emax: maximum activation rate, TOP of fitted curve
T1 construct: GST-RORγ LBD ((263-509) (produced at ChemPartner))
T1 sequence (P51449 263-509): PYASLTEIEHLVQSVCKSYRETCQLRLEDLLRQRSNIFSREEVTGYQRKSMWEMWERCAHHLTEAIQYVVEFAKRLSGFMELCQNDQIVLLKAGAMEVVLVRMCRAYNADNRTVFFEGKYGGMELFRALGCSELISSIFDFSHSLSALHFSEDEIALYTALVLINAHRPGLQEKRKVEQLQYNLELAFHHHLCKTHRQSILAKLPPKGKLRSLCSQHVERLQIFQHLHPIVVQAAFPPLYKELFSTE
Method in brief: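 GST-RORγ LBD (75 nM solution) mixed 1:1 with Biotin-SRC1 (4 nM solution), then with Eu anti-GST and SA-APC; compounds in 10-point 3-fold series from 10 mM stock, duplicate.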

[1] = system: mouse spleen lymphocytes (Th17 cells); assay: Th17 differentiation and IL-17 secretion in mouse lymphocytes; type: cell-based; conditions: Lymphocyte, IL-17 ELISA after 48 hours; for Emax: maximum activation rate
Protocol: Test procedure: the mouse spleen lymphocytes were first isolated, and the lymphocytes were subject to the conditions of stimulating factors (anti-mCD28: 5 μg/mL; rmTGF-β1: 1 ng/mL; rmIL-6: 50 ng/mL; rmIL-23: 5 ng/mL) and differentiated to Th17, while adding different concentrations of compounds. All test compounds were serially diluted at 3-fold dilution with DMSO, with 8 serial dilutions starting from the maximum concentration 3 μM. The supernatants were collected after 48 hours for IL-17 ELISA detection, and compared with the solvent group, to determine the activation rate of the compounds on Th17 cells to secrete IL-17. EC50 values were fitted with Graphad 8.0, and the TOP values fitted by the software was Emax %.

`CCS(=O)(=O)c1ccc(CC(=O)Nc2cc(Cl)c(-c3ccc(S(C)(=O)=O)cc3)c(Cl)c2)nc1` [Example 8, N-(2,6-Dichloro-4′-(methylsulfonyl)-[1,1′-biphenyl]-4-yl)-2-(5-(ethylsulfonyl)pyridin-2-yl)acetamide] gave an EC50 (GST-RORγ LBD (263-509)) of 10.1 nM, an Emax (GST-RORγ LBD (263-509)) of 170% and an EC50 [1] of 370 nM. The Emax [1] was 85%.
`CCS(=O)(=O)c1ccc(-c2c(Cl)cc(NC(=O)Cc3ccc(S(C)(=O)=O)cn3)cc2Cl)cc1` [Example 9, N-(2,6-Dichloro-4′-(ethylsulfonyl)-[1,1′-biphenyl]-4-yl)-2-(5-(methylsulfonyl)pyridin-2-yl)acetamide] showed an EC50 (GST-RORγ LBD (263-509)) of 22.2 nM, an Emax (GST-RORγ LBD (263-509)) of 160% and an EC50 [1] of 943 nM. For the same compound, the Emax [1] was 65.4%.
Work on `COCC(C(=O)Nc1cc(Cl)c(-c2ccc(S(=O)(=O)C3CC3)cc2)c(Cl)c1)c1ccc(S(C)(=O)=O)cc1` (stereo not shown) [Example 20, N-(2,6-Dichloro-4′-(cyclopropylsulfonyl)-[1,1′-biphenyl]-4-yl)-3-methoxy-2-(4-(methylsulfonyl)phenyl)propionamide] yielded an EC50 (GST-RORγ LBD (263-509)) of 19.5 nM and an Emax (GST-RORγ LBD (263-509)) of 192%.
Compound `CCS(=O)(=O)c1ccc(C(COC)C(=O)Nc2cc(Cl)c(-c3ccc(S(=O)(=O)C4CC4)cc3)c(Cl)c2)cc1` (stereo not shown) [Example 16, N-(2,6-Dichloro-4′-(cyclopropylsulfonyl)-[1,1′-biphenyl]-4-yl)-2-(4-(ethylsulfonyl)phenyl)-3-methoxypropionamide] has an EC50 (GST-RORγ LBD (263-509)) of 16.6 nM and an Emax (GST-RORγ LBD (263-509)) of 187%.
`CCS(=O)(=O)c1ccc(-c2c(Cl)cc(NC(=O)Cc3ccc(S(C)(=O)=O)cc3)cc2Cl)cc1` [Example 4, N-(2,6-Dichloro-4′-(ethylsulfonyl)-[1,1′-biphenyl]-4-yl)-2-(4-(methylsulfonyl)phenyl)acetamide] was tested, and the EC50 (GST-RORγ LBD (263-509)) was 9.6 nM, the Emax (GST-RORγ LBD (263-509)) was 220% and the EC50 [1] was 112 nM. For the same compound, the Emax [1] was 156%.
`CS(=O)(=O)c1ccc(CC(=O)Nc2cc(Cl)c(-c3ccc(S(=O)(=O)C4CC4)cc3)c(Cl)c2)cc1` [Example 11, N-(2,6-Dichloro-4′-(cyclopropylsulfonyl)-[1,1′-biphenyl]-4-yl)-2-(4-(methylsulfonyl)phenyl)acetamide] was tested, and the EC50 (GST-RORγ LBD (263-509)) was 6.8 nM, the Emax (GST-RORγ LBD (263-509)) was 167% and the EC50 [1] was 318 nM. The Emax [1] was 123%.
In the case of `CCS(=O)(=O)c1ccc(-c2c(Cl)cc(NC(=O)C(COC)c3ccc(S(=O)(=O)CC)cc3)cc2Cl)cc1` (stereo not shown) [Example 13, N-(2,6-Dichloro-4′-(ethylsulfonyl)-[1,1′-biphenyl]-4-yl)-2-(4-(ethylsulfonyl)phenyl)-3-methoxypropionamide], the EC50 (GST-RORγ LBD (263-509)) is reported as 12.1 nM, the Emax (GST-RORγ LBD (263-509)) is reported as 171% and the EC50 [1] is reported as 5.7 nM. The Emax [1] was 134%.
`CCS(=O)(=O)c1ccc(-c2c(Cl)cc(NC(=O)Cc3ccc(S(=O)(=O)CC)cn3)cc2Cl)cc1` [Example 5, N-(2,6-Dichloro-4′-(ethylsulfonyl)-[1,1′-biphenyl]-4-yl)-2-(5-(ethylsulfonyl)pyridin-2-yl)acetamide] gave an EC50 (GST-RORγ LBD (263-509)) of 8.5 nM, an Emax (GST-RORγ LBD (263-509)) of 222% and an EC50 [1] of 11.4 nM. For the same compound, the Emax [1] was 147%.
In the case of `CCS(=O)(=O)c1ccc(CC(=O)Nc2cc(Cl)c(-c3ccc(S(C)(=O)=O)cc3)c(Cl)c2)cc1` [Example 2, N-(2,6-dichloro-4′-(methylsulfonyl)-[1,1′-biphenyl]-4-yl)-2-(4-(ethylsulfonyl)phenyl)acetamide], the EC50 (GST-RORγ LBD (263-509)) is reported as 9.1 nM, the Emax (GST-RORγ LBD (263-509)) is reported as 210% and the EC50 [1] is reported as 114 nM. For the same compound, the Emax [1] was 203%.
With `COCC(C(=O)Nc1ccc(-c2ccc(S(=O)(=O)C3CC3)cc2)c(C(F)(F)F)c1)c1ccc(S(C)(=O)=O)cc1` (single isomer, unassigned) [Example 43, (S)—N-(4′-(cyclopropylsulfonyl)-2-(trifluoromethyl)-[1,1′-biphenyl]-4-yl)-3-methoxy-2-(4-(methylsulfonyl)phenyl)propionamide or (R)—N-(4′-(cyclopropylsulfonyl)-2-(trifluoromethyl)-[1,1′-biphenyl]-4-yl)-3-methoxy-2-(4-(methylsulfonyl)phenyl)propanamide] the EC50 (GST-RORγ LBD (263-509)) was 6.2 nM and the Emax (GST-RORγ LBD (263-509)) was 194%.
